Reference: patent publication US20250281679A1, “BIOMIMETIC COATING FOR ENDOVASCULAR STENT” (INSERM (Institut National de la Santé et de la Recherche …, priority 2021, published 2025)
Bridge positions count the residues as written; N and C are the ends. Square brackets hold non-standard residues; d marks the D form. Primed or numbered codes have the meaning given here. Ends that are not written are not given here. * marks the point of attachment. Lys(N3) = [N-]=[N+]=NCCCC[C@H](N)C(=O)O; Ttds = NCCCOCCOCCOCCCNC(=O)CCC(=O)*; hCys = N[C@@H](CCS)C(=O)O; PEG4′ = not defined here

Assays:
[1] = system: Human aortic endothelial cells; experiment: Human aortic endothelial cells grown 48 h on bare or peptide-coated nitinol disks; F-actin and CD31 fluorescence image analysis; assay type: cell-based; conditions: for CD31 expression, Integrated Density / F-actin expression (cellular stress), Integrated Density: HAEC 48 h on coated nitinol disks; for CD31 expression, Integrated Density: anti-CD31 domain 1 antibody, compared to other modified disks and bare controls, FIGS. 2, 4, 5; for ratio between CD31 and F-actin expression: compared to bare metal and disks coated with PDA only, FIG. 6; for CD31/Actin score: Example 2, FIG. 25, compared to bare metal disks or disks coated with PDA alone; for F-actin expression (cellular stress), Integrated Density: phalloidin staining, compared to bare metal, FIGS. 2, 3, 5
Experimental: Nitinol disks are left untouched (bare metal) or coated with a domain 1, domain 2 or domain 1 and 2 CD31 analog peptide. The tested peptide is grafted to the nitinol disk following a polydopamine, DBCO-PEG4-amine and azide CD31 derivative peptide using a sequential dip-coating layering procedure. After this step, all the disks are incubated with Human aortic endothelial cells for 48h. Disks are then rinsed and the cells are fixed in a formalin solution before staining. The staining is fulfilled using phalloidin coupled to AlexaFluor®488 dye (green fluorescence for Actin), DAPI is used for DNA staining and a domain 1 CD31 antibody coupled to APC is used for external Domain 1 staining. The cell adhesion and Actin/CD31 expression was evaluated by image analysis of the surface after staining.
In particular, as per FIG. 2 the bare or coated nitinol disks were placed at the bottom of culture wells. Primary Human Aortic Endothelial Cells (HAEC) were allowed to grow on the disks for a period of 48 h. The disks were thereafter rinsed with phosphate buffered saline, fixed in formalin, and processed for fluorescence microscopy. Disk-adherent cells were immersed in a solution comprising Hoechst 33342 (1 μg/ml, to stain the nuclei), phalloidin coupled to AlexaFluor®488 dye (0.5 μM, to stain F-actin fibers) and a monoclonal antibody directed against CD31 domain 1, coupled to allophycocyanin (to detect the presence and localization of intact CD31 at the cell surface) for 1 hour at 37° C., washed and mounted face down on glass bottom imaging chambers for imaging with an inverted fluorescence microscope.
Surface type is indicated on the Y axis, data are expressed as average±SD (N=6/surface type). Each dot corresponds to a specific surface modification. The F-actin expression relates the cellular stress of the cell in presence of the exogenous material.
In FIG. 4 the surface type is indicated on the Y axis. Each dot corresponds to a specific surface modification. Data are expressed as “Integrated Density” average±SD (N=6/surface type). CD31 expression relates the capacity of endothelial cells to adopt a physiologic phenotype while growing on a given substrate. An important variability is observed in terms of CD31 expression by HAEC according to the surface modification of the nitinol disks.
The effect of different peptides, belonging to the different groups, were tested in batches following the same protocol as in FIG. 6. Different peptides from each group were tested in batches and the effect of individual peptides was repeatedly assessed in separate experiments. Data from all experiments were obtained by computer-assisted analysis of images of the disk side covered with endothelial cells, captured in the blue, green and red channel of an inverted fluorescence microscope. The functional score of the peptides belonging to the different groups was calculated by multiplying the number of cells (as detected by the number of blue, Dapi+ nuclei) for the integrated density of CD31 expression (red signal provided by the binding of a mouse anti-human CD31 monoclonal antibody, clone 9G11, conjugated allophycocyanin) and their product being divided for the integrated density of the F-actin polymerization (Phalloidin coupled to a green fluorochrome).
The same protocol as in Example 1 was followed, using peptides according to the invention (SP547, SP548 SP745, SP1374, SP1072, SP1070, SP1071, SP1379 and SP1383) as defined above and the prior art peptide P8RI of sequence KWPALFVR (SEQ ID NO: 52).
The “CD31/Actin” score, resulting from the integrated density of CD31 immunostaining signal divided by the signal of phalloidin, which binds to the polymerized F-actin of the cytoskeleton, has been used to identify the physiological/non-stressed character of the arterial endothelial cells growing onto the surface of experimental disks placed at the bottom of culture wells. […]

CD31 = conditions: soluble peptide; cited from earlier work
endothelial cells = conditions: immobilized peptide, cited from earlier work
[2] = immobilized peptide, in vivo; cited from earlier work

Ac-K(N3)-(Ttds)4-PRhCTLDKKEAIQGGIVRVNhCSVPEEK-CONH2 ({Ac-Lys(N3)-Ttds-Ttds-Ttds-Ttds}-PR[hCys]TLDKKEAIQGGIVRVN[hCys]SVPEEK-NH2; disulfide 3-20) [SP1380]
CD31 expression, Integrated Density [1]: evident positive effect in terms of CD31 expression | ratio between CD31 and F-actin expression [1]: higher CD31/actin ratio

Ac-K(N3)-GGSGGSGG-YKDDVLFYNISSMKST-NH2 (Ac-[Lys(N3)]GGSGGSGGYKDDVLFYNISSMKST-NH2; SMILES CC[C@H](C)[C@H](NC(=O)[C@H](CC(N)=O)NC(=O)[C@H](Cc1ccc(O)cc1)NC(=O)[C@H](Cc1ccccc1)NC(=O)[C@H](CC(C)C)NC(=O)[C@@H](NC(=O)[C@H](CC(=O)O)NC(=O)[C@H](CC(=O)O)NC(=O)[C@H](CCCCN)NC(=O)[C@H](Cc1ccc(O)cc1)NC(=O)CNC(=O)CNC(=O)[C@H](CO)NC(=O)CNC(=O)CNC(=O)[C@H](CO)NC(=O)CNC(=O)CNC(=O)[C@H](CCCCN=[N+]=[N-])NC(C)=O)C(C)C)C(=O)N[C@@H](CO)C(=O)N[C@@H](CO)C(=O)N[C@@H](CCSC)C(=O)N[C@@H](CCCCN)C(=O)N[C@@H](CO)C(=O)N[C@H](C(N)=O)[C@@H](C)O) [SP547]
CD31/Actin score [1]: equivalent to those of sections coated by other peptides according to the invention

Ac-K(N3)-PEG4-PRVTLDKKEAIQGGIVRVNSSVPEEK-CONH2 (Ac-[Lys(N3)][PEG4′]PRVTLDKKEAIQGGIVRVNSSVPEEK-NH2) [SP1071]
CD31/Actin score [1]: significantly higher

Ac-YKDDVLFYNISSMKST-GGSGGSGG-K(N3)-NH2 (Ac-YKDDVLFYNISSMKSTGGSGGSGG[Lys(N3)]-NH2; SMILES CC[C@H](C)[C@H](NC(=O)[C@H](CC(N)=O)NC(=O)[C@H](Cc1ccc(O)cc1)NC(=O)[C@H](Cc1ccccc1)NC(=O)[C@H](CC(C)C)NC(=O)[C@@H](NC(=O)[C@H](CC(=O)O)NC(=O)[C@H](CC(=O)O)NC(=O)[C@H](CCCCN)NC(=O)[C@H](Cc1ccc(O)cc1)NC(C)=O)C(C)C)C(=O)N[C@@H](CO)C(=O)N[C@@H](CO)C(=O)N[C@@H](CCSC)C(=O)N[C@@H](CCCCN)C(=O)N[C@@H](CO)C(=O)N[C@H](C(=O)NCC(=O)NCC(=O)N[C@@H](CO)C(=O)NCC(=O)NCC(=O)N[C@@H](CO)C(=O)NCC(=O)NCC(=O)N[C@@H](CCCCN=[N+]=[N-])C(N)=O)[C@@H](C)O) [SP548]
CD31/Actin score [1]: equivalent to those of sections coated by other peptides according to the invention

KWPALFVR [P8RI, prior art CD31-mimetic octa-peptide]
action on CD31 (CD31): acts like a CD31 agonist | adhesion of endothelial cells (endothelial cells; in vitro): increases the adhesion of endothelial cells in vitro | blood element reaction (endothelial cells): reduces the blood element reaction | integration of endovascular devices [2]: enhances the integration of endovascular devices in vivo

RDQNFVILEFP-PEG4-K(N3)-NH2 [SP1070]
CD31/Actin score [1]: significantly higher | F-actin expression (cellular stress), Integrated Density [1]: does not show an influence on the cellular stress

SHQMLFYKDDVLFYNISSS-GGSGGSGG-K(N3)-CONH2 (SHQMLFYKDDVLFYNISSSGGSGGSGG[Lys(N3)]-NH2; N-terminus assumed; SMILES CC[C@H](C)[C@H](NC(=O)[C@H](CC(N)=O)NC(=O)[C@H](Cc1ccc(O)cc1)NC(=O)[C@H](Cc1ccccc1)NC(=O)[C@H](CC(C)C)NC(=O)[C@@H](NC(=O)[C@H](CC(=O)O)NC(=O)[C@H](CC(=O)O)NC(=O)[C@H](CCCCN)NC(=O)[C@H](Cc1ccc(O)cc1)NC(=O)[C@H](Cc1ccccc1)NC(=O)[C@H](CC(C)C)NC(=O)[C@H](CCSC)NC(=O)[C@H](CCC(N)=O)NC(=O)[C@H](Cc1c[nH]cn1)NC(=O)[C@@H](N)CO)C(C)C)C(=O)N[C@@H](CO)C(=O)N[C@@H](CO)C(=O)N[C@@H](CO)C(=O)NCC(=O)NCC(=O)N[C@@H](CO)C(=O)NCC(=O)NCC(=O)N[C@@H](CO)C(=O)NCC(=O)NCC(=O)N[C@@H](CCCCN=[N+]=[N-])C(N)=O) [SP745]
CD31/Actin score [1]: significantly higher

[Ac-K(N3)-(Ttds)4-PRVTLDKKEAIQGGIVRVNSSVPEEK-Ttds-K^#(CH2CO)-CONH2]-[QHQMLFYhC^#DDVLFYNISSMK-CONH2] (chain 1 {Ac-Lys(N3)-Ttds-Ttds-Ttds-Ttds}-PRVTLDKKEAIQGGIVRVNSSVPEEK-{Ttds-K(CH2CO)-NH2}; chain 2 QHQMLFY[hCys]DDVLFYNISSMK-NH2; also: thioether at chain B 8 to a chain's C-terminus) [SP1383]
CD31/Actin score [1]: significantly higher

[^#CH2CONH2GTYKSTVIVNNKEKTTAEYQ-(Ttds)4-K(N3)-NH2]-[QHQMLFYhC^#DDVLFYNISSMK-CONH2] (chain 1 GTYKSTVIVNNKEKTTAEYQ-{Ttds-Ttds-Ttds-Ttds-Lys(N3)-NH2}; chain 2 QHQMLFY[hCys]DDVLFYNISSMK-NH2; not fully specified (N-terminus); also: thioether at chain B 8 to a chain's N-terminus) [SP1379]
CD31/Actin score [1]: significantly higher

hCHQMLFYKDDVLFYNISShCK-Ttds-Ttds-Ttds-Ttds-K(N3)-CONH2 ([hCys]HQMLFYKDDVLFYNISS[hCys]K-{Ttds-Ttds-Ttds-Ttds-Lys(N3)-NH2}; cysteine pairing not given here) [SP1374]
CD31/Actin score [1]: significantly higher | CD31 expression, Integrated Density ([1]; listed as 1374): evident positive effect in terms of CD31 expression | CD31 expression, Integrated Density ([1]; listed as SP 1374): consistent functional endothelial phenotype (high CD31 expression) | F-actin expression (cellular stress), Integrated Density [1]: low cellular stress (low actin expression) | ratio between CD31 and F-actin expression [1]: higher CD31/actin ratio
